Test results taken from publication PMC8568970 (Nature Communications, 2021).
Entries after “also recorded” stand apart in the source; their conditions may differ. Ends that are not written are not given here. * marks the point of attachment. Octanoyl = CCCCCCCC(=O)*

Columns and labels:
[1] = tested on: GHSR; settings: cited from earlier work
Text: It mainly signals through the growth hormone secretagogue receptor (GHSR, or ghrelin receptor), a class A G protein-coupled receptor (GPCR). […] The GHSR and Gi signaling ...

[2] = tested on: wild type GHSR; test: HTRF competition between dy647-JMV2959 and ghrelin in lipid discs; assay type: binding, human
Text: (§1) Human GHSR was expressed in E. coli inclusion bodies, folded in amphipol A8-35, and then inserted into lipid nanodiscs formed with MSP1E3D1 and POPC:POPG (3:2 molar ratio) containing or not 10% cholesterol, as described in Damian et al.[54]. After insertion into nanodiscs, active receptor fractions were purified using affinity chromatography with the biotinylated version of the JMV2959 antagonist immobilized on a streptavidin column. GHSR containing disks were separated from aggregates and possible trace amounts of the ligand through a size-exclusion chromatography step on a Superdex 200 increase 10/300 GL column (GE Healthcare) using a 25 mM Na-HEPES, 150 mM NaCl, 0.5 mM EDTA, pH 7.5 buffer as the eluent. GTP turnover was assessed as described previously. All experiments were carried out at 15 °C. The receptor was first incubated with the isolated G protein and, when applicable, the ligand (10 µM) for 30 min in a 25 mM HEPES, 100 mM NaCl, 5 mM MgCl2, pH 7.5 buffer. GTP turnover was then started by adding GTP (5 µM) and GDP (10 µM), and the amount of remaining GTP was assessed after 10 min incubation at 15 °C using the GTPase-Glo assay (Promega). The signal was normalized in each case to that in the absence of receptor (100%).
(§2) Competition ligand-binding assays were performed using the HTRF signal between GHSR labeled with Lumi-4 Tb and the JMV2959 antagonist labeled with dy647. Increasing concentrations in the competing compound were added to a receptor: antagonist mixture (100 nM concentration range). In all cases, the ligand: receptor mixtures were incubated for 30 min at 15 °C and the HTRF signal recorded using a Cary Eclipse spectrofluorimeter (Varian) with an excitation wavelength set at 337 nm and an emission wavelength at 665 and 620 nm. All binding data were analyzed using Prism 8.0.
(§3) Supplementary Figure 2. Potential cholesterol binding sites and effects of cholesterol in GHSR signaling. (a) Cryo-EM density maps of two cholesterol molecules modeled in the structure of ghrelin-GHSR-Gi.GHSR is colored in slate. Cholesterol molecules are shown as grey sticks. […]

[3] = tested on: wild type GHSR; test: GTP turnover assay for Gi catalyzed by GHSR in nanodiscs; assay type: biochemical, human
Text: as §1
as §3, with “sticks. (b) GTP turnover for Gi catalyzed by wild type GHSR in nanodiscs containing 10%” for “sticks.”
normalized to that obtained for the G protein in the absence of receptor (Gi panels), and data is mean ± SD of five experiments. Statistical values were obtained by means of two-sided […]
loaded receptor, respectively). […]
the absence or presence of 10% cholesterol (molar ratio) into the lipid discs. Each data point represents mean ± SD of three experiments.
(1 picture or pasted object on this page, not shown here)

[4] = tested on: GHSR mutant R102A; test: Calcium mobilization assay, R102A; assay type: cell-based, human; settings: Fig. 2f
Procedure: Ghrelin residues are labeled in orange. […] GHSR bound to ibutamoren is colored green. Ibutamoren is shown as yellow sticks. e Ibutamoren binding pocket. f Dose-dependent action of ibutamoren on wtGHSR and mutants. In c and f, agonist-induced GHSR signaling was measured by Ca^2+ mobilization assay. Each data point represents mean ± S.D. from three independent assays. Polar interactions are shown as dashed lines in (a, b, and e).
Calcium mobilization assay to measure GHSR signaling was carried out in HEK-293T cells cultured in DMEM supplemented with 10% (vol/vol) FBS (Fisher Scientific). The cDNAs encoding human GHSR was cloned into the pcDNA3.1(+) vector (Invitrogen) with a FLAG peptide fused to the N terminus. […] The surface expression of wtGHSR and various mutants in HEK-293T cells was determined and confirmed using FACS with a fluorescent FLAG M1 antibody (homemade).
To measure the agonist-induced calcium release, 50 μL dye loading buffer made of Hank’s Balanced Salt Solution (HBSS) with 5 μM Fluo-4 (Sigma), 0.2% pluronicacid, and 1% FBS was added to the GHSR-expressing cells and incubated for 1 h at 37 °C. […] Fluo-4 fluorescence intensity (excitation 480 nm, emission 520 nm) was measured as an indicator of calcium release in a multimode reader (Spark 20 M, TECAN). […] The data were analyzed in GraphPad Prism 8 using the one site dose-response stimulation method. […]

[5] = tested on: GHSR mutants; settings: cited from earlier work
[6] = tested on: GHSR mutants; test: Calcium mobilization assay, GHSR mutants (results in words); assay type: cell-based, human
Procedure: Calcium mobilization assay to measure GHSR signaling was carried out in HEK-293T cells cultured in DMEM supplemented with 10% (vol/vol) FBS (Fisher Scientific). The cDNAs encoding human GHSR was cloned into the pcDNA3.1(+) vector (Invitrogen) with a FLAG peptide fused to the N terminus. Mutant variants were then generated by site-directed mutagenesis and all mutants were fully sequenced. Various GHSR constructs were transfected to HEK-293T cells using FuGENE Transfection Reagent (Promega). The surface expression of wtGHSR and various mutants in HEK-293T cells was determined and confirmed using FACS with a fluorescent FLAG M1 antibody (homemade).
To measure the agonist-induced calcium release, 50 μL dye loading buffer made of Hank’s Balanced Salt Solution (HBSS) with 5 μM Fluo-4 (Sigma), 0.2% pluronicacid, and 1% FBS was added to the GHSR-expressing cells and incubated for 1 h at 37 °C. Cells were then washed twice with HBSS buffer and left at room temperature in 50 μL HBBS. Fluo-4 fluorescence intensity (excitation 480 nm, emission 520 nm) was measured as an indicator of calcium release in a multimode reader (Spark 20 M, TECAN). […] The data were analyzed in GraphPad Prism 8 using the one site dose-response stimulation method. Results were presented as mean ± S.D. from three independent experiments.

[7] = tested on: GHSR mutants; test: HTRF-monitored binding of labeled ghrelin, GHSR mutants (results in words); parameters: species or system human; settings: Supplementary Fig. 3b
Procedure: as §2
GHSR mutants. (a) Surface expression levels of GHSR mutants tested in Figure 2. For each GHSR mutant, the expression level was determined by measuring the fluorescence intensity of transfected HEK-293 cells stained with a fluorescent anti-FLAG antibody that could bind to the N-terminal FLAG peptide of each GHSR construct. BG means background, representing results from non-transfected HEK-293 cells. Each column represents results shown as mean ± s.d. from 3 wells of cells transiently transfected with each GHSR mutant. (b) HTRF-monitored binding of […]
POPC:POPG lipid discs. The binding data are presented as variations in the HTRF ratio as a […]
Each data point represents mean ± SD of three […]
ibutamoren (yellow). The receptors are colored in slate and green, respectively. ECL2 and ECL3 show notable conformational differences. […]

[8] = tested on: GHSR; settings: signaling through GHSR, under nutritional or physiological challenges; cited from earlier work
Text: It mainly signals through the growth hormone secretagogue receptor (GHSR, or ghrelin receptor), a class A G protein-coupled receptor (GPCR). […] In addition, GHSR plays critical role in the mod ...

[9] = tested on: GHSR and Gi signaling pathway; settings: cited from earlier work
Text: The GHSR and Gi signaling ...

[10] = reconstituted lipid nanodiscs, 10% cholesterol

Cc1cc(-c2ccc3c(c2)CC[C@H]3N2CC3(CCN(C(=O)Cc4cn5cc(C)sc5n4)CC3)C2)ncn1 [PF-5190457]
pharmacological character at GHSR [1]: GHSR inverse agonist

CC(C)CCC[C@@H](C)[C@H]1CC[C@H]2[C@@H]3CC=C4C[C@@H](O)CC[C@]4(C)[C@H]3CC[C@]12C [cholesterol]
effect of cholesterol on affinity of GHSR for ghrelin ([2]; 10% cholesterol, lipid discs (peer review file)): slightly increase the affinity of GHSR for ghrelin | effect of cholesterol on binding of ghrelin to GHSR [2, 10]: positively regulate the binding of ghrelin to GHSR | effect of cholesterol on GHSR-induced Gi activation ([3]; 10% cholesterol (molar ratio), with and without 10 µM ghrelin, five experiments): subtle but significant positive effects | effect of cholesterol on basal activity (GTP turnover) ([3]; no ligand, lower amplitude than in the presence of ghrelin): statistically significant effect | effect of cholesterol on activity of GHSR [3, 10]: positively regulate

CC(C)(N)C(=O)N[C@H](COCc1ccccc1)C(=O)N1CCC2(CC1)CN(S(C)(=O)=O)c1ccccc12 [ibutamoren]
action of ibutamoren, effect of mutation of R102 [4]: compromised action of ibutamoren

Liver expressed antimicrobial peptide 2 (LEAP2): Liver expressed antimicrobial peptide 2, GHSR inverse agonist or antagonist (MTPFWRGVSLRPIGASCRDDSECITRLCRKRRCSLSVAQE; UniProt Q969E1 38-77, looked up)
pharmacological character at GHSR [1]: GHSR inverse agonist or antagonist

ghrelin: 28-amino acid orexigenic peptide hormone; octanoylation at position-3 serine; endogenous GHSR agonist (Tocris) (GSS(Octanoyl)FLSPEHQRVQQRKESKKPPAKLQPR; UniProt Q9UBU3 24-51, looked up)
potency of ghrelin in activating GHSR, effect of mutations F279, F312, W276 ([5]; individual mutations in the aromatic cluster): significantly lowered the potency of ghrelin | potency of ghrelin, effect of mutations E124, R283, Q120 ([5]; individual mutations to non-polar residues): decreased potency of ghrelin | EC50 of ghrelin in inducing GHSR signaling, effect of the four TM7 proline mutations ([6]; I297P, A298P, Q299P, I300P vs wtGHSR, 3 independent assays): didn't significantly affect the EC50s of ghrelin | agonistic action of ghrelin, effect of proline mutations at the extracellular end of TM7 ([6]; individual residues E297 to I300 to proline, Supplementary Fig. 4b): didn't significantly affect the agonistic action of ghrelin; also recorded: not critical for the agonistic action of ghrelin | GHSR signaling induced by ghrelin, effect of mutations of hydrophobic residues in cavity II ([6]; mutations to larger or polar residues, Fig. 2c): compromised GHSR signaling induced by ghrelin | decrease of Kd value for ghrelin in the presence of cholesterol ([2]; 10% cholesterol vs none, lipid discs): about 2 fold | ghrelin binding, effect of salt bridge mutations ([7]; E124 and R283 to alanine or glutamine): could almost abolish ghrelin binding | affinity of GHSR for ghrelin, effect of alanine mutations ([7]; individual mutations I178, L181, F286 to alanine): decreased affinity of GHSR for ghrelin | growth hormone secretion and food intake [8]: stimulates growth hormone secretion and food intake | glucose-induced insulin release [9]: attenuated glucose-induced insulin release
